This note sets out measurements from patent US11766410B2, “Composition for preventing or treating dry eye syndrome containing α-humulene as active ingredient” (INJE UNIVERSITY INDUSTRY-ACADEMIC COOPERATION FOUNDATION, priority 2018, dated 2023).

Holding throughout (type): in vivo, rat
One assay relates to animal model of dry eye. The experiment in a line: Inhibition and treatment effect on dry corneal epithelial damage, tear amount by tear test strip. The note with it: 10 μl of 0.5 mg/ml eye drop solution for 2 weeks, FIG. 2. The protocol:
For experiments on dry corneal epithelial damage, an animal model of dry eye was prepared. It was induced by instill 1% atropine sulfate and 0.1% benzalkonium chloride twice a day for 2 weeks. After administration of the dry eye inducer, the experimental animals were applied by ocular administration according to the above-described administration method at an interval of 1 hour.
After administration of the sample for 2 weeks, the animals were anesthetized with isoflurane, and then the tear amount of each rat was measured using a Shrimer tear test strip.

The next assay has as its system MUC6. The assay can be described thus: Mucin gene expression by real-time PCR in conjunctival epithelium after eye drop administration. To be noted: 10 μl of 0.5 mg/ml eye drops twice a day for 5 days, right eye vs saline left eye; corrected by β-actin; FIG. 1. The procedure: (§1) α-humulene was administered to the eye in the following way: 6 male rats with a body weight of about 200 g were used, and the left eye was designated as the control group and the right eye was designated as the experimental group. Samples as eye drops were administered to the eye twice a day for 5 days and 10 μl of physiological saline was administered to the left eye (control group) and 10 μl of 0.5 mg/ml α-humulene diluted in physiological saline was administered to the right eye (experimental group) as eye drops. Animals were sacrificed to extract the conjunctival epithelium containing the fornix conjunctiva from the eyes and the extracted tissue was isolated and used for molecular biological analysis.
(§2) RNA was extracted from the ocular tissues of rats according to the manufacturers instructions using RNeasy mini kit from Qiagen (USA). The cDNA was synthesized using the cDNA synthesis kit of Qiagen (USA) from the isolated RNA, and then it was used for real-time polymerase chain reaction (real-time PCR). Real-time PCR was performed according to the manufacturer's instructions using Qiagen's Rotor-Gene Q 2 plex real-time DNA amplifier and Qiagen's two-step PCR SYBR kit, and the amount of amplified DNA was quantitatively compared. Specifically, after pre-denaturation at 95° C. for 5 minutes based on the cycling protocol, each 40 cycles were repeated at 95° C. for 5 seconds and at 60° C. for 10 seconds, and it was performed in the order of the melting step rising for 3 minutes from 60° C. to 95° C. The product amplified by the real-time PCR was quantified using the Delta delta Ct method, and corrected by the expression amount of β-actin for each sample.

For a further assay, the system named is MUC1. Described as above. The note with it: 10 μl of 0.5 mg/ml eye drops twice a day for 5 days, right eye vs saline left eye; corrected by β-actin; FIG. 1. The procedure:
as §1, §2

The test system of the next assay is MUC4. The description is as above. To be noted: 10 μl of 0.5 mg/ml eye drops twice a day for 5 days, right eye vs saline left eye; corrected by β-actin; FIG. 1. The protocol:
as §1, §2

As for `C/C1=C\CC/C(C)=C/CC(C)(C)/C=C/C1` [α-humulene], the amount of tears result with animal model of dry eye (AS/BAC-induced dry eye, tear test strip) is recorded as “significant difference in the amount of tears”. In addition, the “therapeutic effect on dry corneal epithelial damage” value in the assay with animal model of dry eye (dry eye induced by 1% atropine sulfate/0.1% benzalkonium chloride (AS/BAC)) is reported as “showed the therapeutic effect of the corneal epithelium”. The “expression of MUC6” value in the assay with MUC6 is listed as “increased significantly”. Also, in the assay on MUC1, the “expression of MUC1” value was “increased significantly”. In addition, in the assay on MUC4, the “expression of MUC4” value is “increased significantly”.
